Assay results: publication PMC2216842 (The Journal of General Physiology, 1994)
Read-outs that look alike come from different tables or passages of the source.

Experiments:
[1] = test system: BTX-modified Na+ channels in GH3 cells; experiment: Whole-cell voltage clamp, voltage-ramp protocol; assay type: cell-based, rat; conditions: for effect of external Na+ ions on binding: 0 vs 130 mM external Na+; for voltage dependence of block / IC50: voltage ramp; for voltage dependence of block: quasi steady state; for change of binding after CT treatment: 0.5 mM CT 5 min; for IC50: no external Na+
[2] = test system: unmodified Na+ channels in GH3 cells; experiment: Whole-cell voltage clamp, tonic and use-dependent block of normal Na+ currents; assay type: cell-based, rat; conditions: 1 mM; for tonic block of normal Na+ currents: +30 mV test pulse, prepulse -130 mV; for use-dependent block of normal Na+ currents: repetitive +30 mV pulses, 25 ms at 5 Hz
[3] = Solubility in test solution; conditions: external solution, from 500 mM DMSO stock
[4] = test system: BTX-modified Na+ channels in GH3 cells; assay type: cell-based, rat; conditions: for enhancement of the inactivation of BTX-modified Na+ channels: benzocaine derivatives

Compound: CCOC(=O)c1ccc(N(C)C)cc1 [N-dimethyl benzocaine, ethyl p-dimethylamino-benzoate]
- effect of external Na+ ions on binding [1]: no effect
- voltage dependence of block [1]: enhanced by depolarization
- left shift in steady-state inactivation [2]: ~ 10 mV
- tonic block of normal Na+ currents [2]: produces a tonic block
- use-dependent block of normal Na+ currents [2]: elicits additional use-dependent block
- solubility [3]: could not reliably dissolve N-dimethyl benzocaine at 3 mM even after heating
- enhancement of the inactivation of BTX-modified Na+ channels [4]: failed to enhance the inactivation

Compound: CCOC(=O)c1ccc(N)cc1 [benzocaine, Benzocaine]
- effect of external Na+ ions on binding [1]: do not reduce benzocaine binding
- change of binding after CT treatment ([1]; measured from -75 mV to +50 mV, 1 and 3 mM): greatly reduced
- shift of V0.5 toward the depolarizing direction ([1]; 1 mM benzocaine on BTX-modified channels, 130 mM external Na+): about 20 mV
- IC50 ([1]; at +50 mV): ~1200 µM
- IC50 ([1]; at -50 mV): 300 µM
- voltage dependence of block [1]: greater at the resting membrane potential (-50 to -90 mV) than at positive potentials (0 to +50 mV)
- left shift in steady-state inactivation [2]: about 20 mV
- tonic block of normal Na+ currents [2]: produces a tonic block
- use-dependent block of normal Na+ currents [2]: fails to elicit additional use-dependent block
- solubility [3]: poor solubility of benzocaine at concentrations higher than 3 mM
- IC50 ([4]; read-out: concentration that inhibits 50% of BTX-modified Na+ currents (IC50), at -70 mV, GH3 cells): 200 µM

Compound: COC(=O)[C@H]1[C@@H](OC(=O)c2ccccc2)C[C@@H]2CC[C@H]1N2C [cocaine, (-)-cocaine]
- change of binding after CT treatment ([1]; from 0 to +50 mV, 0.1 or 0.3 mM): small reduction
- change of binding after CT treatment ([1]; from -50 mV to -30 mV, 0.1 or 0.3 mM): slightly enhanced
- voltage dependence of block [1]: significantly stronger at +50 mV than at -50 mV

Compound: CCOC(=O)c1cccc(O)c1 [ethyl 3-hydroxy benzoate]
- enhancement of the inactivation of BTX-modified Na+ channels [4]: acted more or less as benzocaine

Compound: CCOC(=O)c1ccc(O)cc1 [ethyl 4-hydroxy benzoate]
- enhancement of the inactivation of BTX-modified Na+ channels [4]: acted more or less as benzocaine

Compound: COC(=O)c1ccc(N)cc1 [methyl 4-amino benzoate]
- enhancement of the inactivation of BTX-modified Na+ channels [4]: acted more or less as benzocaine

Compound: CCOC(=O)c1cccc(N)c1 [tricaine]
- enhancement of the inactivation of BTX-modified Na+ channels [4]: acted more or less as benzocaine

Compound: batrachotoxin [BTX]
- activation threshold, more negative than that of normal Na+ currents ([1]; BTX-modified channels, threshold near -90 mV): ~ 50 mV
